Values of other authors as cited in US5874104A, “Treatment of systemic fungal infections with phospholipid particles encapsulating polyene antibiotics” (NeXstar Pharmaceuticals, Inc., priority 1995, dated 1999).

Assays:
[1] = saline as suspending solution; Jurgens et al.
patients = conditions: for Toxicity to cells of the patient: human, in vivo
renal tubules = conditions: mammals
host = conditions: in vivo

Compound	Precipitation in saline [1]	Clinical toxicity (patients; at therapeutic dose levels)	Toxicity to cells of the patient (patients)	Toxicity for membrane systems (renal tubules)	Host toxicity of liposomal drug (host)
C[C@@H]1[C@H](O)[C@@H](C)/C=C/C=C/C=C/C=C/C=C/C=C/C=C/[C@H](O[C@@H]2O[C@H](C)[C@@H](O)[C@H](N)[C@@H]2O)C[C@@H]2O[C@](O)(C[C@@H](O)C[C@@H](O)[C@H](O)CC[C@@H](O)C[C@@H](O)CC(=O)O[C@H]1C)C[C@H](O)[C@H]2C(=O)O [amphotericin B]	precipitation	acute hemolytic crisis and eventual kidney failure	acute and chronic toxicity	greater for certain membrane systems, such as the renal tubules	
C[C@@H]1[C@H](O)[C@@H](C)/C=C/C=C/CC/C=C/C=C/C=C/C=C/C(O[C@H]2O[C@H](C)[C@@H](O)[C@H](N)[C@@H]2O)CC2O[C@](O)(CC(O)C(O)CCC(O)CC(O)CC(O)CC(=O)O[C@H]1C)CC(O)C2C(=O)O (stereo partly drawn) [nystatin]			acute and chronic toxicity		
liposomal Amphotericin B					decreased host toxicity
